# Laboratory results: patent US4698350A, “1-ethyl-6-fluoro-1,4-dihydro- 7-(2,6-dimethyl-4-pyridinyl)-4-oxo-3-quinolinecarboxylic acid and antibacterial use thereof” (Sterling Drug Inc., priority 1984, dated 1987)
# Where a name gives a salt, the structure may show the parent alone.
# What was measured:
# Test in all cases: In vitro antibacterial MIC/MBC test
# Type in all cases: cell-based
# S. aureus (25923) = conditions: Staphylococcus aureus, ATCC25923, S. aureus ATCC No. 25923; for MBC: read-out: MBC; for MIC: read-out: MIC
# Protocol: (§1) Win 52,522 and Win 35,439 were solubilized in 0.1 ml of 0.5 N NaOH/mg of compound and diluted in sterile distilled water to 160 mcg/ml. Vancomycin and methicillin were solubilized in sterile distilled water to 1250 mcg/ml of base compound. The stock solutions were sterilized by filtration through membrane filters with a 0.45 μm pore size.
# (§2) The bacterial cultures listed in Table I (hereinbelow) were grown overnight at 37° C. in MHB for all cultures except the Streptococcus strains. These were grown in BHI+10% NHS. The overnight broth cultures were adjusted to an optical density of 0.10 (650 nm, B L Spectronic 20) in sterile distilled water and subsequently diluted to 6.7×10^6 cells/ml in MHB or BHI+1% NHS.
# (§3) Serial two-fold dilutions of the compound solutions were prepared in MHB (or in BHI+1% NHS for tests with Streptococci) and dispensed into 96-well microtiter trays in a volume of 0.1 ml/well using a Sandy Springs (Bellco Glass Co.) dispenser. The trays were then inoculated with 0.0015 ml of a suspension containing 6.7×10^6 cells/ml of the appropriate inoculum using a MIC-2000 inoculator (Dynatech Corp.) resulting in a final inoculum of approximately 1×10^4 cells/well or 1×10^5 cells/ml. The trays were incubated at 37° C. for 18-20 hours and the minimal inhibitory concentration (MIC), defined as the lowest concentration of compound to inhibit visible bacterial growth, was recorded.
# (§4) After the MIC values were recorded, the contents in the microtiter trays were thoroughly mixed on a Bellco Mini-orbital Shaker (Bellco Glass Co.) for 3 min. at a setting of 8. A portion (0.0015 ml) from each well was then transferred via an MIC-2000 inoculator to plates containing MHA or BHI agar+10% NHS. The plates were incubated at 37° C. for 18-20 hrs. The minimal bactericidal concentration (MBC), defined as the lowest concentration of compound that prevented the formation of a recognizable colony on the agar surface, was recorded.
# S. aureus 10-81 = conditions: Staphylococcus aureus, 1081, S. aureus 10-81; for MBC: read-out: MBC; for MIC: read-out: MIC
# Protocol: as §1, §2, §3, §4
# S. aureus 13-8-A = conditions: Staphylococcus aureus, 138A, S. aureus 13-8-A; for MBC: read-out: MBC; for MIC: read-out: MIC
# Protocol: as §1, §2, §3, §4
# S. aureus 21-81A = conditions: Staphylococcus aureus, 2181A, S. aureus 21-81A; for MBC: read-out: MBC; for MIC: read-out: MIC
# Protocol: as §1, §2, §3, §4
# S. aureus 24-81 = conditions: Staphylococcus aureus, 2481, S. aureus 24-81; for MBC: read-out: MBC; for MIC: read-out: MIC
# Protocol: as §1, §2, §3, §4
# S. aureus 34-81 = conditions: Staphylococcus aureus, 3481, S. aureus 34-81; for MBC: read-out: MBC; for MIC: read-out: MIC
# Protocol: as §1, §2, §3, §4
# S. aureus 41-81 = conditions: Staphylococcus aureus, 4181, S. aureus 41-81; for MBC: read-out: MBC; for MIC: read-out: MIC
# Protocol: as §1, §2, §3, §4
# S. aureus 59-81 = conditions: Staphylococcus aureus, 5981, S. aureus 59-81; for MBC: read-out: MBC; for MIC: read-out: MIC
# Protocol: as §1, §2, §3, §4
# S. aureus Glorgio = conditions: Staphylococcus aureus, S. aureus Glorgio; for MBC: read-out: MBC; for MIC: read-out: MIC
# Protocol: as §1, §2, §3, §4
# S. aureus S-234 = conditions: Staphylococcus aureus, S234, S. aureus S-234; for MBC: read-out: MBC; for MIC: read-out: MIC
# Protocol: as §1, §2, §3, §4
# S. aureus Smith = conditions: Staphylococcus aureus, S. aureus Smith; for MBC: read-out: MBC; for MIC: read-out: MIC
# Protocol: as §1, §2, §3, §4
# S. aureus VA16951 = conditions: Staphylococcus aureus, S. aureus VA16951; for MBC: read-out: MBC; for MIC: read-out: MIC
# Protocol: as §1, §2, §3, §4
# S. enterococcus 0-2-13 = conditions: for MBC / MIC: 0213, S. enterococcus 0-2-13; for MBC: read-out: MBC; for MIC: read-out: MIC
# Protocol: as §1, §2, §3, §4
# S. epidermidis (12228) = conditions: Staphylococcus epidermidis, ATCC12228, S. epidermidis ATCC No. 12228; for MBC: read-out: MBC; for MIC: read-out: MIC
# Protocol: as §1, §2, §3, §4
# S. epidermidis (17917) = conditions: Staphylococcus epidermidis, ATCC17917, S. epidermidis ATCC No. 17917; for MBC: read-out: MBC; for MIC: read-out: MIC
# Protocol: as §1, §2, §3, §4
# S. epidermidis 1-3-H = conditions: Staphylococcus epidermidis, 13H, S. epidermidis 1-3-H; for MBC: read-out: MBC; for MIC: read-out: MIC
# Protocol: as §1, §2, §3, §4
# S. epidermidis 1-5-H = conditions: Staphylococcus epidermidis, 15H, S. epidermidis 1-5-H; for MBC: read-out: MBC; for MIC: read-out: MIC
# Protocol: as §1, §2, §3, §4
# S. faecalis (11700) = conditions: Enterococcus faecalis, ATCC11700, S. faecalis ATCC No. 11700; for MBC: read-out: MBC; for MIC: read-out: MIC
# Protocol: as §1, §2, §3, §4
# S. faecalis (8043) = conditions: Enterococcus faecalis, ATCC8043, S. faecalis ATCC No. 8043; for MBC: read-out: MBC; for MIC: read-out: MIC
# Protocol: as §1, §2, §3, §4
# S. pneumoniae Type III = conditions: for MBC / MIC: Streptococcus pneumoniae, S. pneumoniae Type III; for MBC: read-out: MBC; for MIC: read-out: MIC
# Protocol: as §1, §2, §3, §4
# S. pyogenes 7948-15 = conditions: Streptococcus pyogenes, 794815, S. pyogenes 7948-15; for MBC: read-out: MBC; for MIC: read-out: MIC
# Protocol: as §1, §2, §3, §4
smiles,measurement,setting,value
"COc1cccc(OC)c1C(=O)N[C@@H]1C(=O)N2[C@@H]1SC(C)(C)[C@@H]2C(=O)O [Methicillin, 6-(2,6-dimethoxybenzamido)penicillanic acid sodium salt]",MBC,S. aureus (25923),2 µg/mL
same,MIC,S. aureus (25923),2 µg/mL
same,MBC,S. aureus 10-81,16 µg/mL
same,MIC,S. aureus 10-81,8 µg/mL
same,MBC,S. aureus 13-8-A,2 µg/mL
same,MIC,S. aureus 13-8-A,1 µg/mL
same,MBC,S. aureus 21-81A,1 µg/mL
same,MIC,S. aureus 21-81A,1 µg/mL
same,MBC,S. aureus 24-81,2 µg/mL
same,MIC,S. aureus 24-81,1 µg/mL
same,MBC,S. aureus 34-81,2 µg/mL
same,MIC,S. aureus 34-81,1 µg/mL
same,MBC,S. aureus 41-81,1 µg/mL
same,MIC,S. aureus 41-81,1 µg/mL
same,MBC,S. aureus 59-81,64 µg/mL
same,MIC,S. aureus 59-81,32 µg/mL
same,MBC,S. aureus Glorgio,4 µg/mL
same,MIC,S. aureus Glorgio,2 µg/mL
same,MBC,S. aureus S-234,32 µg/mL
same,MIC,S. aureus S-234,8 µg/mL
same,MBC,S. aureus Smith,1 µg/mL
same,MIC,S. aureus Smith,1 µg/mL
same,MBC,S. aureus VA16951,8 µg/mL
same,MIC,S. aureus VA16951,4 µg/mL
same,MBC,S. enterococcus 0-2-13,8 µg/mL
same,MIC,S. enterococcus 0-2-13,8 µg/mL
same,MBC,S. epidermidis (12228),4 µg/mL
same,MIC,S. epidermidis (12228),4 µg/mL
same,MBC,S. epidermidis (17917),4 µg/mL
same,MIC,S. epidermidis (17917),4 µg/mL
same,MBC,S. epidermidis 1-3-H,4 µg/mL
same,MIC,S. epidermidis 1-3-H,2 µg/mL
same,MBC,S. epidermidis 1-5-H,2 µg/mL
same,MIC,S. epidermidis 1-5-H,1 µg/mL
same,MBC,S. faecalis (11700),64 µg/mL
same,MIC,S. faecalis (11700),64 µg/mL
same,MBC,S. faecalis (8043),> 125 µg/mL
same,MIC,S. faecalis (8043),> 125 µg/mL
same,MBC,S. pneumoniae Type III,0.125 µg/mL
same,MIC,S. pneumoniae Type III,0.125 µg/mL
same,MBC,S. pyogenes 7948-15,0.125 µg/mL
same,MIC,S. pyogenes 7948-15,0.25 µg/mL
"CCn1cc(C(=O)O)c(=O)c2cc(F)c(-c3cc(C)nc(C)c3)cc21 [Win 52,522, 1-ethyl-6-fluoro-1,4-dihydro-7-(2,6-dimethyl-4-pyridinyl)-4-oxo-3-quinolinecarboxylic acid]",MBC,S. aureus (25923),0.03 µg/mL
same,MIC,S. aureus (25923),0.015 µg/mL
same,MBC,S. aureus 10-81,0.03 µg/mL
same,MIC,S. aureus 10-81,0.03 µg/mL
same,MBC,S. aureus 13-8-A,0.03 µg/mL
same,MIC,S. aureus 13-8-A,0.03 µg/mL
same,MBC,S. aureus 21-81A,0.015 µg/mL
same,MIC,S. aureus 21-81A,0.015 µg/mL
same,MBC,S. aureus 24-81,0.03 µg/mL
same,MIC,S. aureus 24-81,0.015 µg/mL
same,MBC,S. aureus 34-81,0.03 µg/mL
same,MIC,S. aureus 34-81,0.03 µg/mL
same,MBC,S. aureus 41-81,0.015 µg/mL
same,MIC,S. aureus 41-81,0.015 µg/mL
same,MBC,S. aureus 59-81,0.03 µg/mL
same,MIC,S. aureus 59-81,0.015 µg/mL
same,MBC,S. aureus Glorgio,0.015 µg/mL
same,MIC,S. aureus Glorgio,< 0.008 µg/mL
same,MBC,S. aureus S-234,0.03 µg/mL
same,MIC,S. aureus S-234,0.015 µg/mL
same,MBC,S. aureus Smith,0.03 µg/mL
same,MIC,S. aureus Smith,0.03 µg/mL
same,MBC,S. aureus VA16951,0.015 µg/mL
same,MIC,S. aureus VA16951,0.015 µg/mL
same,MBC,S. enterococcus 0-2-13,0.25 µg/mL
same,MIC,S. enterococcus 0-2-13,0.25 µg/mL
same,potency relative to vancomycin,"S. enterococcus 0-2-13; in vitro, enterococcus strain 0-2-B",equal in potency
same,MBC,S. epidermidis (12228),0.06 µg/mL
same,MIC,S. epidermidis (12228),0.06 µg/mL
same,MBC,S. epidermidis (17917),0.125 µg/mL
same,MIC,S. epidermidis (17917),0.06 µg/mL
same,MBC,S. epidermidis 1-3-H,0.06 µg/mL
same,MIC,S. epidermidis 1-3-H,0.06 µg/mL
same,MBC,S. epidermidis 1-5-H,0.06 µg/mL
same,MIC,S. epidermidis 1-5-H,0.06 µg/mL
same,MBC,S. faecalis (11700),0.25 µg/mL
same,MIC,S. faecalis (11700),0.25 µg/mL
same,MBC,S. faecalis (8043),0.5 µg/mL
same,MIC,S. faecalis (8043),0.25 µg/mL
same,MBC,S. pneumoniae Type III,0.5 µg/mL
same,MIC,S. pneumoniae Type III,0.5 µg/mL
same,times less potent than vancomycin,"S. pneumoniae Type III; in vitro, S. pneumoniae type III",8 times
same,MBC,S. pyogenes 7948-15,0.5 µg/mL
same,MIC,S. pyogenes 7948-15,0.5 µg/mL
